Measurements as given in publication PMC6836573, “Mitochondria-targeting fluorescent molecules for high efficiency cancer growth inhibition and imaging” (Chemical Science, 2019).

Columns and labels:
bladder cancer T24 cell = experiment: Cytotoxicity assay (direct cell counting), T24; format: cell-based
Procedure: (§1) Cell culture, imaging, and cytotoxicity assay
(§2) RPMI-1640 medium. NIH/3T3 was cultured in DMEM medium. A549 was cultured in F-12K medium. T24 were cultured in McCoy's 5A medium. All culture mediums were supplemented with 10% fetal bovine serum. The cells were incubated at 37 °C in an atmosphere containing 5% CO 2. […]
(§3) Cytotoxicity assay. All test cell lines were incubated in 96-well plates overnight at a density of 3000 cells/well. The culture medium was replaced with 200 μL of culture medium, into which the testing compound was dispersed at various concentrations (1.95 - 500 μM). After incubating for 3 days, the viable cell numbers were checked and directly counted under microscopy (10X). A minimum of 1mm×1mm area was counted from each of at least three widely separated regions of cell culture. The cell proliferation rate was calculated by the following formula: cell proliferation rate (%) = (average cell number of sample wells / average cell number of control wells) ×100%.
(§4) The intact culture medium was evaluated as a control. […]

NSCLC H838 cell = experiment: Cytotoxicity assay (direct cell counting), H838; format: cell-based; conditions: Homo sapiens, NCI-H838, 72 h, H838 cells; 3 days incubation, viable cells counted
Procedure: as §1, §2, §3, §4
All animal experiments were performed in compliance with the Guidelines for the Care and Use of Research Animals as established by the Stanford University Animal Studies Committee. Female athymic nude mice (nu/nu) from 4−6 weeks old were obtained from Charles River Laboratories (Boston, MA, USA) and kept under sterile conditions. 5 × 106 human lung adenocarcinoma

[1] = Cytotoxicity assay (direct cell counting), NIH-3T3; format: cell-based; conditions: mouse; NIH-3T3 normal cells; 3 days incubation, viable cells counted
Procedure: as §1, §2, §3, §4

HCC827 NSCLC cell line = experiment: Cytotoxicity assay, HCC827; format: cell-based; conditions: Homo sapiens; HCC827 cells
Procedure: as §1, §2, §3, §4

A549 NSCLC cell line = experiment: Cytotoxicity assay, A549; format: cell-based; conditions: Homo sapiens; A549 cells
Procedure: as §1, §2, §3, §4

H1437 NSCLC cell line = experiment: Cytotoxicity assay, H1437; format: cell-based; conditions: Homo sapiens, NCI-H1437; H1437 cells
Procedure: as §1, §2, §3, §4

H838 cells' mitochondria = experiment: Effect of membrane potential (high K+ medium, FCCP) on 5BMF accumulation; format: cell-based
Procedure: To verify that F16 derivatives preserve the same property, H838 cells were preincubated in high K^+ medium (137 mM) to depolarize the plasma membrane, then 5BMF (3 μM) was added and incubated for 30 min. […] As with other DLCs, the selectivity of F16s for mitochondria is driven by the negative transmembrane potential.[18]
Mitotracker® Red (Molecular Probes) and Hoechst (Thermo Scientific) were added to the medium to stain the mitochondria and nuclei, following the manufacturer’s procedures. Cells were photographed as previously described using a 63× oil or 20× objective lens.
The effect of membrane potential on 5BMF accumulation was performed through staining HCC827 cells in low K+ and high K+ buffer, instead of RPMI-1640 culture medium. Low K+ buffer contains 137 mM NaCl, 3.6 mM KCI, 0.5 mM MgCl2, 1.8 mM CaCl2 of RPMI-1640 medium (GIBCO). […]
Cytotoxicity assay. […] After incubating for 3 days, the viable cell numbers were checked and directly counted under microscopy (10X). A minimum of 1mm×1mm area was counted from each of at least three widely separated regions of cell culture. The cell proliferation rate was calculated by the following formula: cell proliferation rate (%) = (average cell number of sample wells / average cell number of control wells) ×100%.
as §4

[2] = pH stability (integrated fluorescence intensity); format: physicochemical; conditions: pH 3.0–10.0 buffers, 24 h, 10 µM
Procedure: with 10 µM concentration). pH 3.0~7.0 buffers are sodium hydrogen phosphate and trisodium buffer; pH 7.4~10.0 buffers are phosphate buffered saline. 5BMF was put into different pH buffer with the concentration of 10 µM. 5BMF solutions were taking out at 1, 2, 3, 4, 5, 6, 7, 8, 16, 24 h time point. And their integrated fluorescent intensity (from 450 nm to 650 nm) were measured (excited at 425 nm). All data were analyzed using Origin Pro 9.0 software (OriginLab, Northampton, Massachusetts, USA).
(1 picture or pasted object on this page, not shown here)

[3] = Self-assembly into nanoparticles (TEM, DLS); format: physicochemical; conditions: 1× pH 7.4 PBS, 5 mM to 0.125 mM
[4] = Relative fluorescence quantum yield; format: physicochemical; conditions: EtOH, relative to rhodamine 6G, excited at 425 nm
Procedure: Quantum yield. The fluorescence quantum yields of F16s were determined according to the […]
Where Φ is the quantum yield, F is the integrated area under the corrected emission spectrum, and A is the absorbance at the excitation wavelength; the subscripts x and s refer to F16s and the standard, respectively. Rhodamine 6G (ΦF = 95%) in ethanol was used as the standard. All F16s and Rhodamine 6G were dissolved in ethanol in 5 different concentrations with the absorbance lower than 0.1 at 425nm. The corresponding 5 different fluorescences of F16s and Rhodamine 6G were excited at 425 nm and the emission spectra from 450 nm to 650 nm were obtained for the following integrated area measurement. All data were analyzed using Origin Pro 9.0 software (OriginLab, Northampton, Massachusetts, USA) to get the F16s final quantum yield. […]

Work on Cc1cc(Br)cc2c(/C=C/c3cc[n+](C)cc3)c[nH]c12 [5BMF] yielded a selectivity indices (bladder cancer T24 cell; 3T3 versus T24 and H838) of over 10, an IC50 (bladder cancer T24 cell; Homo sapiens, T-24, 72 h, T24 cells, 3 days incubation, viable cells counted) of 820 nM and an IC50 (NSCLC H838 cell) of 360 nM. For the same molecule, the IC50 at 3 days [1] was 11 µM, the IC50 (HCC827 NSCLC cell line) was 1990 nM and the IC50 (A549 NSCLC cell line) was 727 nM. For the same molecule, the IC50 (H1437 NSCLC cell line) was 1430 nM, the “accumulation in mitochondria in high K+ medium versus low K+ medium” value (H838 cells' mitochondria; H838 cells, 3 μM, 30 min, high K+ 137 mM, low K+ 3.6 mM) was “much less 5BMF accumulation in mitochondria” and the “mitochondrial staining after addition of FCCP” value (H838 cells' mitochondria; cells preloaded with 5BMF, FCCP 5 µM, 1 and 3 min) was “immediately decayed and diffused into the cytoplasm”. The “decay in buffers of different pH” value [2] was “less than 20%”, the “size of self-assembled nanoparticles” value [3] was about 120 nm and the “Quantum Yield” value [4] was 19.7%. The “Quantum Yield” value ([4]; listed as 3) was “around 20%”.
